Results reported in patent publication US10842779B2, “Heterocyclic compounds and their use in preventing or treating bacterial infections” (priority 2015, dated 2020).
Where two headings read alike, the source gives them in different places.

Columns and labels:
[1] = molecular target: T1, OXA-15 (Pseudomonas aeruginosa, UniProt Q51574); assay: β-Lactamase inhibitory activity, nitrocefin hydrolysis; format: biochemical
T1 construct: made in house; host or cells: E. coli

[2] = molecular target: T2, CTX-M-15 (Escherichia coli, UniProt Q9EXV5); assay: as above; format: biochemical; conditions: class (A); 30 min pre-incubation
T2 construct: made in house; host or cells: E. coli

[3] = molecular target: T3, OXA-1 (Escherichia coli, UniProt P13661); assay: as above; format: biochemical; conditions: class (D); 30 min pre-incubation
T3 construct: made in house; host or cells: E. coli

[4] = molecular target: T4, OXA-11 (Pseudomonas aeruginosa, UniProt Q06778); assay: as above; format: biochemical
T4 construct: made in house; host or cells: E. coli

[5] = molecular target: AmpC (P99) (Enterobacter cloacae, UniProt P05364); assay: biochemical
Protocol: (§1) Method 1: β-Lactamase Inhibitory Activity, Determination of IC50 (Table 1)
(§2) Enzyme activity was monitored by spectrophotometric measurement of nitrocefin (NCF-TOKU-E, N005) hydrolysis at 485 nm, at room temperature and in assay buffer A: 100 mM Phosphate pH7, 2% glycerol and 0.1 mg/mL Bovine serum albumin (Sigma, B4287). Enzymes were cloned in E. coli expression vector, expressed and purified in house using classical procedures. To a transparent polystyrene plate (Corning, 3628) were added in each well 5 μL DMSO or inhibitor dilutions in DMSO and 80 μL enzyme in buffer A. Plates were immediately read at 485 nm in a microplate spectrophotometer (BioTek, PowerWave HT) to enable background subtraction. After 30 min of pre-incubation at room temperature, 15 μL of NCF (200 μM final) were finally added in each well. Final enzyme concentrations were 0.1 nM (TEM-1), 0.075 nM (SHV-1), 0.4 nM (CTX-M-15), 1 nM (KPC-2), 0.2 nM (P99 AmpC), 0.2 nM (CMY-37), 0.4 nM (AmpC P. aeruginosa), 0.2 nM (OXA-1), 1.2 nM (OXA-11), 0.4 nM (OXA-15) and 0.3 nM (OXA-48). After 20 min incubation at room temperature, plates were once again read at 485 nm. Enzyme activity was obtained by subtracting the final signal by the background, and was converted to enzyme inhibition using non inhibited wells. IC50 curves were fitted to a classical Langmuir equilibrium model with Hill slope using XLFIT (IDBS).

[6] = molecular target: AmpC (PAE) (Pseudomonas aeruginosa, UniProt P24735); assay: biochemical
Protocol: as §1, §2

[7] = molecular target: T5, OXA-48 (Klebsiella pneumoniae, UniProt Q6XEC0); assay: β-Lactamase inhibitory activity, nitrocefin hydrolysis; format: biochemical; conditions: class (D); 30 min pre-incubation
T5 construct: made in house; host or cells: E. coli

[8] = molecular target: T6, TEM-1 (Escherichia coli, UniProt P62593); assay: as above; format: biochemical; conditions: class (A); 30 min pre-incubation
T6 construct: made in house; host or cells: E. coli

[9] = molecular target: T7, SHV-1 (Klebsiella pneumoniae, UniProt P0AD64); assay: as above; format: biochemical
T7 construct: made in house; host or cells: E. coli

[10] = tested on: E. cloacae; assay: MIC of compounds alone, broth microdilution; format: cell-based; conditions: Enterobacter cloacae, ECL P99, beta-lactamases AmpC, read-out: MIC
Protocol: (§3) Method 2: MIC of Compounds and Synergy with Ceftazidime Against Bacterial Isolates (Table 2 and 3)
(§4) Compounds of the present invention were assessed against genotyped bacterial strains alone or in combination with the β-lactam ceftazidime. In the assays, MICs of said compounds, or of ceftazidime at fixed concentrations of said compounds were determined by the broth microdilution method according to the Clinical Laboratory Standards Institute (CLSI—M7-A7). Briefly, compounds alone according to the invention were prepared in DMSO and spotted (2 μL each) on sterile polystyrene plates (Corning, 3788). Compounds and ceftazidime dilutions were prepared in DMSO and spotted (1 μL each) on sterile polystyrene plates (Corning, 3788). Log phase bacterial suspensions were adjusted to a final density of 5×10^5 cfu/mL in cation-adjusted Mueller-Hinton broth (Beckton-Dickinson) and added to each well (98 μL). Microplates were incubated for 16-20 h at 35° C. in ambient air. The MIC of the compounds was defined as the lowest concentration of said compounds that prevented bacterial growth as read by visual inspection. The MIC of ceftazidime at each compound concentration was defined as the lowest concentration of ceftazidime that prevented bacterial growth as read by visual inspection.

[11] = tested on: K. pneumoniae; assay: MIC of compounds alone, broth microdilution; format: cell-based; conditions: Klebsiella pneumoniae, alone; KPN 6299; beta-lactamases TEM-1, SHV-11 OXA-163; read-out: MIC
Protocol: as §3, §4

[12] = tested on: E. coli; assay: MIC of compounds alone, broth microdilution; format: cell-based; conditions: Escherichia coli, ECO 190317, beta-lactamases TEM-1, SHV-12, CTX-M-15 OXA-1, read-out: MIC
Protocol: as §3, §4

[13] = molecular target: T8, KPC-2 (Klebsiella pneumoniae, UniProt Q9F663); assay: β-Lactamase inhibitory activity, nitrocefin hydrolysis; format: biochemical; conditions: class (A); 30 min pre-incubation
T8 construct: made in house; host or cells: E. coli

[14] = tested on: E. cloacae; assay: Synergy with ceftazidime: MIC of ceftazidime at fixed concentration of compound; format: cell-based; conditions: Enterobacter cloacae, ECL P99; beta-lactamases AmpC; read-out: MIC of CAZ + compound (4 μg/mL)
Protocol: as §3, §4

[15] = tested on: K. pneumoniae; assay: as above; format: cell-based; conditions: Klebsiella pneumoniae, read-out: MIC of CAZ + compound (4 μg/mL), KPN 6299; beta-lactamases TEM-1, SHV-11 OXA-163
Protocol: as §3, §4

[16] = molecular target: CMY-37 (Citrobacter freundii); assay: β-Lactamase inhibitory activity, nitrocefin hydrolysis; format: biochemical

SMILES	IC50 [1] [nM]	IC50 [2] [nM]	IC50 [3] [nM]	IC50 [4] [nM]	IC50 [5] [nM]	IC50 [6] [nM]	IC50 [7] [nM]	IC50 [8] [nM]	IC50 [9] [nM]	MIC [10] [µg/mL]	MIC [11] [µg/mL]	MIC [12] [µg/mL]	IC50 [13] [nM]	MIC [14] [µg/mL]	MIC [15] [µg/mL]	IC50 ([16]; class (C), 30 min pre-incubation, read-out: IC50 β-lactamase CMY-37) [nM]	IC50 [16] [nM]
O=C1N2C[C@H](c3scnc3[C@H]2c2ncno2)N1OS(=O)(=O)[O-].[Na+] (relative stereo) [Example 4, Sodium [trans-7-(1,2,4-oxadiazol-5-yl)-9-oxo-3-thia-5,8,10-triaza-tricyclo[6.2.1.0^2,6]undeca-2(6),4-dien-10-yl]sulfate]	19	0.64	170	6.5	1.1	64	0.34	1.1	1.4	32	> 32	16	3.2	2	2	3.4	
O=C(O)C(F)(F)F.O=C1N2C[C@H](c3scnc3[C@H]2c2nnc[nH]2)N1OS(=O)(=O)[O-].[Na+] (relative stereo) [Example 3, Sodium and 2,2,2-trifluoroacetate [trans-7-(4H-1,2,4-triazol-4-ium-3-yl)-9-oxo-3-thia-5,8,10-triaza-tricyclo[6.2.1.0^2,6]undeca-2(6),4-dien-10-yl]sulfate]	1100	28	1000	190	13	570	6.8	46	140			16	460				30
